Reference: US20170152245A1 (National Taiwan University, priority 2015, published 2017)

Key:
[1] = system: human platelet suspension; experiment: Arachidonic acid-induced platelet aggregation in human platelet suspension; type: cell-based; settings: AA 200 μM
Protocol: (§1) Human platelet suspension (PS) was prepared according to the method described previously. Briefly, blood sample, freshly obtained from healthy volunteers who had taken no medications during the preceding 2 weeks, was treated with acid citrate/dextrose (ACD) in a volume ratio of 9:1. After centrifugation at 120 g, 25° C. for 9 min, platelet-rich plasma was transferred into another plastic tube and incubated with heparin (6.4 U/ml) as well as prostaglandin E1 (1 μM). Platelets were spun down by centrifugation at 500 g, 25° C. for 8 min and subsequently washed two times with Tyrode solution (NaH2PO4 0.4 mM; NaCl 136.9 mM; KCl […]; NaHCO3 11.9 mM; CaCl2 2 mM; MgCl2 2.1 mM; glucose 11.1 mM; BSA 3.5 mg/ml; pH 7.35-7.4). The washed platelets were finally suspended in Tyrode's solution and the platelet count was adjusted to 3.75×10^8 platelets/ml. For platelet-rich plasma (PRP) preparation, whole blood was anticoagulated with 1/10 vol of sodium citrate (3.8%, w/v) and centrifuged at 150 g, 25° C. for 9 min.
(§2) Platelet aggregation was measured turbidimetrically with a Lumi-aggregometer (Payton Scientific) at 37° C. under stirring condition (900 rpm). Platelet suspensions were prewarmed to 37° C. for 2 min in a silicone-treated glass cuvette. Nstpbp5185 was added 3 min before the addition of platelet-aggregation inducers. The extent of platelet aggregation was determined by recording the increase of light transmission relative to that of control (maximal aggregation, as 100%) for 6 min after the addition of inducer. The final volume and platelet count for measuring platelet aggregation were 500 μl and 3×10^8/ml, respectively.

[2] = system: human platelet suspension; experiment: Thromboxane B2 formation in human platelet suspension; type: cell-based
Protocol: Human platelet suspension (3.75×10^8/ml) was preincubated in the presence or absence of nstpbp5185 or aspirin for 3 min before the addition of collagen or AA. Six minutes after the addition of agonist, […] indomethacin and 2 mM EDTA were added to the reaction suspension. After centrifugation in an Eppendorf centrifuge at 14,000 g for 2 min, the thromboxane B2 (TXB2), the stable metabolite of TXA2, levels of the supernatant were measured using a competitive enzyme-immuno assay (EIA) kit according to the instructions of the manufacturer.

[3] = system: human platelet suspension; experiment: U46619-induced platelet aggregation in human platelet suspension; type: cell-based; settings: for IC50: Homo sapiens; for shift of the concentration-response curve of U46619: nstpbp5185 2 and 3 μM with indomethacin, Ctkf6f2 1 μM; for U46619 needed to induce the full aggregation: platelets pretreated with 1 μM compound
human platelets [4] = experiment: Flow cytometric analysis of P-selectin expression; type: cell-based; settings: for U46619-induced P-selectin expression: U46619 1 μM; for collagen-induced P-selectin expression: collagen 10 μg/ml
Protocol: […] Then the sample was further incubated with FITC-labeled anti-CD62P in the dark at room temperature. Prior to analysis, the volume was adjusted to 1 mL/tube with Tyrode's solution. The suspensions were immediately assayed by fluorescence activated cell sorter (Becton-Dickinson, FACScan System, San Joe, Calif.) using excitation and emission wavelength of 488 and 525 nm, respectively. Data were collected from 10000 platelets per experimental group. The level of P-selectin expression was expressed as mean fluorescence intensity.

[5] = system: receptor tyrosine kinases; experiment: Receptor tyrosine kinases safety profile; type: biochemical; design: dose or concentration left out as unconfirmed
Protocol: These kinases or enzymatic assays were performed by MDS according to the standardized methods

human platelets [6] = experiment: Platelet [Ca2+]i mobilization by Fura 2-AM fluorescence; type: cell-based; settings: for collagen-evoked increase of [Ca2+]i: collagen 10 μg/ml, Fura-2-loaded platelets
Protocol: After centrifugating platelet-rich plasma at 500 g, 25° C. for 8 min, isolated platelets were resuspended in Ca^2+-free Tyrode solution. The platelet suspensions were protected from light and incubated with Fura 2-AM (5 μM) at 37° C. for 30 min. Human platelets were then prepared as described previously. The washed platelet count was adjusted to 3-4.5×10^8 platelets/ml. Finally, the external Ca^2+ concentration of the platelet suspensions was adjusted to 1 mM. The rise in [Ca^2+]i was measured using a fluorescence spectrophotometer (CAF 110, Jasco, Japan) at excitation wavelengths of 340 and 380 nm, and an emission wavelength of 500 nm. [Ca^2+]i was calculated from the fluorescence, using 224 nM as the Ca^2+-Fura 2 dissociation constant.

mice = experiment: Pulmonary thromboembolism caused by collagen/epinephrine; type: in vivo; settings: for survival rate after 1 day: n=4
Protocol: (A) Mice were i.v. injected with vehicle (DMSO as control), nstpbp5185 (10 μg/g) or Ctkf6f2 (10 μg/g), then injected with collagen/epinephrine to induce pulmonary embolism model. After the onset of respiratory arrest, lungs were excised. […] Histologic analysis was performed on H&E-stained sections of lung from each mouse. […] (B) Survival rate of mice injected with DMSO as control, nstpbp5185 (10 μg/g) or Ctkf6f2 (10 μg/g) after induction of pulmonary thromboembolism in 30 min, 1 hr and 24 hr (n=4). (C) Representative images of lung isolated after the onset of respiratory arrest, but while the heart was still beating, 0.5 ml of Evans blue solution was injected into the heart. Lungs were excised, and photographed.
Male mice (ICR, 25±3 g) received collagen (0.6 μg/g) plus epinephrine (0.2 μg/g) by tail vein injection. While the respiration is very weak and the heart was still beating, 0.5 mL of Evans blue solution (1% in saline; Sigma) was injected into the heart. Lungs were excised, photographed and fixed with paraldehyde, embedded into paraffin, and sectioned. Histological analysis was performed on hematoxylin and eosin-stained (H&E) sections of lung from each mouse. Nstpbp5185 (10 μg/g) or DMSO vehicle was intravenously given prior to collagen/epinephrine. Mortality after challenge was calculated as percentage of death after injection of collagen/epinephrine, the end time will be […].

[7] = system: human platelet suspension; experiment: Collagen-induced platelet aggregation in human platelet suspension; type: cell-based; settings: collagen 10 μg/ml; for IC50: Platelet, washed human platelets, read-out: IC50 collagen-induced platelet aggregation in human PS
Protocol: as §1, §2

[8] = Homo sapiens, Platelet, collagen 10 μg/ml, read-out: inhibition of TXB2 compared to the control
[9] = Platelet, U46619 1 μM, washed human platelets, read-out: IC50 U46619-induced aggregation

Structure (SMILES) | IC50 [1] [nM] | inhibition at 1 µM [2, 8] [%] | IC50 [3, 9] [nM] | shift of the concentration-response curve of U46619 [3] | U46619 needed to induce the full aggregation [3] | U46619-induced P-selectin expression (human platelets [4]) | collagen-induced P-selectin expression (human platelets [4]) | effects on receptor tyrosine kinases [5] | collagen-evoked increase of [Ca2+]i (human platelets [6]) | survival rate after 1 day (mice; 10 μg/g i.v.) [%] | IC50 [7] [nM] | also measured
Cc1ccc(-c2nc3ccc(F)cc3n2Cc2cccc(F)c2)o1 [Ctkf6f2, 6-fluoro-1-(3-fluorobenzyl)-2-(5-methyl-2-furyl)benzimidazole] | 3200 ± 990 | 43.9 | 1170 ± 230 | right-shift | around 2 μM | decreased | decreased | little effects | concentration-dependently inhibited | 100 | 3400 ± 620 | inhibition at 0.3 µM ([2]; Homo sapiens, Platelet, collagen 10 μg/ml, 0.3 μM, read-out: inhibition of TXB2 compared to the control): 33%; inhibition at 3 µM ([2]; Homo sapiens, Platelet, collagen 10 μg/ml, 3 μM, read-out: inhibition of TXB2 compared to the control): 64.7%; inhibition at 10 µM ([2]; Homo sapiens, Platelet, collagen 10 μg/ml, 10 μM, read-out: inhibition of TXB2 compared to the control): 73.5%; inhibition at 1 µM ([3]; Platelet, human washed platelets, 1 μM compound, U46619 1 μM): 50%; U46619-induced calcium mobilization (human platelets [6]; U46619 1 μM, 1 μM-3 μM compound): markedly inhibited; emboli in lung sections compared with 5185 (mice; 10 μg/g i.v.): smaller emboli
Cc1ccc(-c2nc3ccccc3n2Cc2ccccc2)o1 [Example 6, 1-Benzyl-2-(5-methyl-2-furyl)benzimidazole] | 3900 ± 200 | 52.6 | ~2500 | right-shift | 0.5 µM | significantly reduced | concentration-dependently reduced to baseline | little effects | markedly inhibited | 100 | ~1300 | TXB2 generation of AA-stimulated platelets ([2]; arachidonic acid 200 μM, 0.7, 2 and 6 μM): concentration-dependently inhibited; TXB2 generation of collagen-stimulated platelets ([2]; collagen 10 μg/ml, 0.7, 2 and 6 μM): concentration-dependently inhibited; IC50 ([3]; Platelet, U46619-induced aggregation, platelet suspension, read-out: P.S(U46619) IC50): 2450 nM; inhibition of aggregation induced by U46619 ([3]; human washed platelets, 1 μM compound, U46619 1 μM): could not effectively inhibit; thrombin-evoked increase of [Ca2+]i (human platelets [6]; thrombin 0.1 U/ml, even at 60 μM): no effect; mortality after collagen/epinephrine within 1 hr (mice; 5 and 10 μg g^−1, intravenous injection): completely protected mice from death; microemboli in lung sections (mice; nstpbp5185-treated mice vs control): few microemboli; % inhibition collagen ([7]; human platelet suspension, preliminary, compound concentration not given): 71.2 (n = 2) %
